A short description of experiment [1]: Inhibition of Escherichia coli recombinant N-terminal hexahistidine-tagged CTP synthetase expressed in Escherichia coli BL21 (DE3) assessed as inhibition of CTP formation in Hepes buffer at pH 8 by continuous spectrophotometric assay in presence of 10 mM L-glutamine and 0.15 mM GTP.
Experiment [2] in a line: Inhibition of Escherichia coli recombinant N-terminal hexahistidine-tagged CTP synthetase expressed in Escherichia coli BL21 (DE3) assessed as inhibition of CTP formation in TAPS buffer at pH 8.5 by continuous spectrophotometric assay in presence of 10 mM L-glutamine and 0.15 mM GTP.
Experiment [3] in a line: Inhibition of Escherichia coli recombinant N-terminal hexahistidine-tagged CTP synthetase expressed in Escherichia coli BL21 (DE3) assessed as inhibition of CTP formation in Hepes buffer at pH 8 by continuous spectrophotometric assay in presence of 150 mM NH4Cl.
Experiment [4] can be described thus: Inhibition of Escherichia coli recombinant N-terminal hexahistidine-tagged CTP synthetase expressed in Escherichia coli BL21 (DE3) assessed as inhibition of CTP formation in TAPS buffer at pH 8.5 by continuous spectrophotometric assay in presence of 150 mM NH4Cl.
Experiment [5] is described as follows: Inhibition of Escherichia coli recombinant N-terminal hexahistidine-tagged CTP synthetase expressed in Escherichia coli BL21 (DE3) assessed as inhibition of CTP formation by continuous spectrophotometric assay in presence of 10 mM L-glutamine and 0.15 mM GTP.
The nature of experiment [6]: Inhibition of Escherichia coli recombinant N-terminal hexahistidine-tagged CTP synthetase expressed in Escherichia coli BL21 (DE3) assessed as inhibition of CTP formation by continuous spectrophotometric assay in presence of 150 mM NH4Cl.
The nature of experiment [7]: Multisite inhibition of Escherichia coli recombinant N-terminal hexahistidine-tagged CTP synthetase expressed in Escherichia coli BL21 (DE3) assessed as inhibition of CTP formation in Hepes buffer at pH 8 in presence of 1.36 mM NH4Cl.
A short description of experiment [8]: Multisite inhibition of Escherichia coli recombinant N-terminal hexahistidine-tagged CTP synthetase expressed in Escherichia coli BL21 (DE3) assessed as inhibition of CTP formation in Hepes buffer at pH 8 in presence of 0.54 mM NH4Cl.
Experiment [9] in a line: Multisite inhibition of Escherichia coli recombinant N-terminal hexahistidine-tagged CTP synthetase expressed in Escherichia coli BL21 (DE3) assessed as inhibition of CTP formation in Hepes buffer at pH 8 in presence of 5.44 mM NH4Cl.
The test system of experiment [10] is Escherichia coli. As to the kind of experiment: Inhibition of Escherichia coli recombinant N-terminal hexahistidine-tagged CTP synthetase expressed in Escherichia coli BL21 (DE3) assessed as inhibition of CTP formation at 1 mM in presence of 1mM ATP.
The nature of experiment [11]: Multisite inhibition of Escherichia coli recombinant N-terminal hexahistidine-tagged CTP synthetase expressed in Escherichia coli BL21 (DE3) assessed as inhibition of CTP formation in Hepes buffer at pH 8 in presence of 8.16 mM NH4Cl.
The nature of experiment [12]: Multisite inhibition of Escherichia coli recombinant N-terminal hexahistidine-tagged CTP synthetase expressed in Escherichia coli BL21 (DE3) assessed as inhibition of CTP formation in Hepes buffer at pH 8 in presence of 2.72 mM NH4Cl.
In experiment [13] the test system is Escherichia coli. As to the kind of experiment: Inhibition of Escherichia coli recombinant N-terminal hexahistidine-tagged CTP synthetase expressed in Escherichia coli BL21 (DE3) assessed as inhibition of CTP formation at 1 mM in presence of 1mM UTP.

Activity calls are given as the source filed them. The rule behind the calls is not given here.

Usually IC50 stands for the concentration needed to halve the response being measured. As to `Cn1c(=O)c2[nH]c(=O)[nH]c2n(C)c1=O`, the half-inhibitory concentration (IC50) in [1] came to 88 µM; in experiment [2] it was 64 µM; in experiment [3], 72 µM; in experiment [4] it was 99 µM.

Consider `O=c1cc[nH]c(=O)[nH]1` [URACIL], for which the half-maximal inhibitory concentration (IC50) stood at 4200 µM in [5] (read-out: IC50) and 4700 µM in experiment [6] (read-out: IC50).

With `NC(=O)NC1NC(=O)NC1=O` (stereo unspecified) [ALLANTOIN], the IC50 result in experiment [5] and in experiment [6] was “Not Active” throughout.

On to `O=c1ccn([C@@H]2O[C@H](CO)[C@@H](O)[C@H]2O)c(=O)[nH]1` [URIDINE], for which the half-inhibitory concentration (IC50) in experiment [5] (read-out: IC50) was found to be 3100 µM; in experiment [6] (read-out: IC50), 4600 µM.

Consider `Cn1cnc2c1c(=O)[nH]c(=O)n2C` [THEOBROMINE], for which the IC50 in experiment [5] (read-out: IC50) was 420 µM; in experiment [6] (read-out: IC50) it was 580 µM.

Regarding `Nc1ncnc2c1ncn2[C@@H]1O[C@H](CO)[C@@H](O)[C@H]1O` [ADENOSINE], the half-maximal inhibitory concentration (IC50) in experiment [6] (read-out: IC50) was determined as 11000 µM.

Turning to `Cn1c(=O)c2c(ncn2C)n(C)c1=O` [CAFFEINE], the IC50 came out at 450 µM in experiment [7]; 440 µM in [8]; 450 µM in [9]; 440 µM in [11]; 390 µM in experiment [5] (read-out: IC50); 420 µM in [12]. Besides, the 50% inhibitory concentration (IC50) in experiment [6] (read-out: IC50) is 510 µM. Moreover, the inhibition result in the experiment with Escherichia coli [10] and in the experiment on Escherichia coli [13] was “inactive” each time.

Regarding `Cn1c(=O)[nH]c2[nH]c(=O)[nH]c2c1=O`, the half-inhibitory concentration (IC50) is 101 µM in experiment [5] (read-out: IC50) and 96 µM in experiment [6] (read-out: IC50).

Consider `Cn1c(=O)[nH]c2ncn(C)c2c1=O` [PARAXANTHINE], for which the IC50 in [1] was found to be 440 µM; in experiment [2] it was 200 µM; in experiment [3], 480 µM; in [4], 360 µM.

For `Cn1c(=O)c2c(n(C)c1=O)n(C)c(=O)n2C`, the results for the half-inhibitory concentration (IC50) in experiment [5] (read-out: IC50) and in experiment [6] (read-out: IC50) were 79 µM and 121 µM, respectively.

As for `O=c1[nH]c(=O)c2nc[nH]c2[nH]1` [XANTHINE], the IC50 in experiment [1] worked out at 230 µM; in experiment [2], 160 µM; in experiment [3] it was 370 µM; in experiment [4], 220 µM.

In the case of `Cn1c(=O)c2c([nH]c(=O)n2C)n(C)c1=O`, the IC50 in experiment [5] (read-out: IC50) was 67 µM; in [6] (read-out: IC50), 70 µM.

Consider `Cn1c(=O)c2nc[nH]c2n(C)c1=O` [THEOPHYLLINE], for which the IC50 in experiment [1] came to 430 µM; in experiment [2] it was 300 µM; in experiment [3], 550 µM; in experiment [4], 400 µM.

With `Nc1[nH]cnc2ncnc1-2` [ADENINE], the IC50 in experiment [5] (read-out: IC50) turned out to be 15800 µM; in experiment [6] (read-out: IC50), 12900 µM.

`Cn1c(=O)[nH]c2[nH]c(=O)n(C)c2c1=O`: the IC50 in [1] amounted to 113 µM; in experiment [2], 61 µM; in experiment [3], 119 µM; in experiment [4] it was 109 µM.

Turning to `Cn1c(=O)[nH]c(=O)c2c1[nH]c(=O)n2C`, the inhibition entry in the experiment with Escherichia coli [10] and in the experiment with Escherichia coli [13] was “inactive” in each case. Also, the 50% inhibitory concentration (IC50) was determined as 63 µM in experiment [5] (read-out: IC50) and 90 µM in experiment [6] (read-out: IC50).

Regarding `O=C(O)Cc1cc(=O)[nH]c(=O)[nH]1`, the IC50 in experiment [5] (read-out: IC50) worked out at 2600 µM; in experiment [6] (read-out: IC50), 3170 µM.

For `Oc1nc(O)c2nc(O)[nH]c2n1` [URIC ACID], the IC50 is 60 µM in experiment [1], 60 µM in [2], 87 µM in experiment [3] and 113 µM in experiment [4].

Source of the values: ChEMBL document CHEMBL1153213, “Inhibition of CTP synthase from Escherichia coli by xanthines and uric acids” (Bioorg Med Chem Lett, 2010).
